Measured values taken from patent publication US20250368666A1, “INDAZOLE COMPOUNDS” (TYRA BIOSCIENCES, INC., priority 2022, published 2025).

Columns and labels:
[1] = tested on: HuH7 cell line (FGF19 amplification); assay: Cancer cell line cell viability assay (Cell Titer-Glo), 120 hr; format: cell-based; conditions: Homo sapiens, Huh-7
Summary of the method: (§1)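 Luminescent ATP read-out (Cell Titer-Glo 2.0) after compound exposure, normalised to DMSO-only wells. Dosing: 9 concentrations, 4-fold steps, top 3 μM, triplicates. IC50 derived by log(inhibitor) vs. response 4-parameter fit.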

[2] = biological target: T1, FGFR3 (V555M) (Homo sapiens, UniProt P22607, V555M); assay: Kinase binding assay (kinase-tagged T7 phage, affinity beads, qPCR), Kd; conditions: V555M mutant; read-out: FGFR3 (V555M) (Kd nM)
T1 construct: made in house; host or cells: E. coli (BL21-derived), T7 phage
T1 sequence (P22607 23-806 V555M): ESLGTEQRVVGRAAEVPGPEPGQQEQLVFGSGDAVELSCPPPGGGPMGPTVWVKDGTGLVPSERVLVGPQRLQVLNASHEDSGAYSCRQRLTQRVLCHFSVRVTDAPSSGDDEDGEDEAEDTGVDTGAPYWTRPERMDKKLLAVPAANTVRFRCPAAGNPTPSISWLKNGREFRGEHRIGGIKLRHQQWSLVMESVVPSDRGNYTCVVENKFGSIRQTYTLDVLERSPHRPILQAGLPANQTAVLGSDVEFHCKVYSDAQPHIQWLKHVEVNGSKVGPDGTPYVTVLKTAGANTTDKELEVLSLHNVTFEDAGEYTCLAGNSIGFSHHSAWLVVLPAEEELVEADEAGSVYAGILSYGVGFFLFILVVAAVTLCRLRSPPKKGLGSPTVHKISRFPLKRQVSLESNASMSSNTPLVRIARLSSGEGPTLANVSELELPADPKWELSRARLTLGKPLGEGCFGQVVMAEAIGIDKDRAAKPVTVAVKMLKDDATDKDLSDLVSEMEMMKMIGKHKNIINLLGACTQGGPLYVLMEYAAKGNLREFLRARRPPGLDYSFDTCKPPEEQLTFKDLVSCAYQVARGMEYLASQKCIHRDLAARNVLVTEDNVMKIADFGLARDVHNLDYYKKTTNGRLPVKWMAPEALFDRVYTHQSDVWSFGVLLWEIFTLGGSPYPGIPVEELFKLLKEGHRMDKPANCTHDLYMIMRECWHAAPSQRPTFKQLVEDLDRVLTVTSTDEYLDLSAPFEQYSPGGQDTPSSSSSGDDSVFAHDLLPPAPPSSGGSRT
Summary of the method: (§2)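 T7 phage displaying each kinase, grown in a BL21-derived E. coli host at 32° C until lysis, competed with test compound for biotinylated ligand immobilised on streptavidin beads. Bead-bound kinase was eluted and quantified by qPCR. Kd came from an 11-point 3-fold dilution series fitted to the Hill equation with slope fixed at −1.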

[3] = biological target: T2, FGFR4 (Homo sapiens, UniProt P22455); assay: as above; conditions: read-out: FGFR4 (Kd nM)
T2 construct: made in house; host or cells: E. coli (BL21-derived), T7 phage
T2 sequence (P22455 22-802): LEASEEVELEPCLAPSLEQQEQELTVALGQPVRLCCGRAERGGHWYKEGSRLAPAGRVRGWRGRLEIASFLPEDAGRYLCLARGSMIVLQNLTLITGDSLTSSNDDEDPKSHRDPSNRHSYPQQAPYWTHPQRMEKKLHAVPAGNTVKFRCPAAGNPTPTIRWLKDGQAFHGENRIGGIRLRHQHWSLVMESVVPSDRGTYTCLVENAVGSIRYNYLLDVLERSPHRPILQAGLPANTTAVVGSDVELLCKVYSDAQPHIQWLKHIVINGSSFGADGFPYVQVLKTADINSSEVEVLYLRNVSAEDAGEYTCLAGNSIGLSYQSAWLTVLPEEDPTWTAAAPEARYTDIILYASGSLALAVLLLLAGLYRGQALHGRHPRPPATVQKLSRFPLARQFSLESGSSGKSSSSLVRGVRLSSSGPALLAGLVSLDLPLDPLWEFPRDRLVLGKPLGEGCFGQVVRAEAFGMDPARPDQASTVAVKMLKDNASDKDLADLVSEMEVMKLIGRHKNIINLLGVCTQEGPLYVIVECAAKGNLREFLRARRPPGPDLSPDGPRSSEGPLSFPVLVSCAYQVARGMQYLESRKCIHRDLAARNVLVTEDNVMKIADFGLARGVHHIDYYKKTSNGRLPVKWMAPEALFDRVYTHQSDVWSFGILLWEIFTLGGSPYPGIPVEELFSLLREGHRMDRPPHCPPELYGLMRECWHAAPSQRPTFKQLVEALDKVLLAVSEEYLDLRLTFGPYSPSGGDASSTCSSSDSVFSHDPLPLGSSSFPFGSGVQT
Summary of the method: as §2

[4] = biological target: T3, FGFR2 (Homo sapiens, UniProt P21802); assay: as above; conditions: read-out: FGFR2 (Kd nM)
T3 construct: made in house; host or cells: E. coli (BL21-derived), T7 phage
T3 sequence (P21802 22-821): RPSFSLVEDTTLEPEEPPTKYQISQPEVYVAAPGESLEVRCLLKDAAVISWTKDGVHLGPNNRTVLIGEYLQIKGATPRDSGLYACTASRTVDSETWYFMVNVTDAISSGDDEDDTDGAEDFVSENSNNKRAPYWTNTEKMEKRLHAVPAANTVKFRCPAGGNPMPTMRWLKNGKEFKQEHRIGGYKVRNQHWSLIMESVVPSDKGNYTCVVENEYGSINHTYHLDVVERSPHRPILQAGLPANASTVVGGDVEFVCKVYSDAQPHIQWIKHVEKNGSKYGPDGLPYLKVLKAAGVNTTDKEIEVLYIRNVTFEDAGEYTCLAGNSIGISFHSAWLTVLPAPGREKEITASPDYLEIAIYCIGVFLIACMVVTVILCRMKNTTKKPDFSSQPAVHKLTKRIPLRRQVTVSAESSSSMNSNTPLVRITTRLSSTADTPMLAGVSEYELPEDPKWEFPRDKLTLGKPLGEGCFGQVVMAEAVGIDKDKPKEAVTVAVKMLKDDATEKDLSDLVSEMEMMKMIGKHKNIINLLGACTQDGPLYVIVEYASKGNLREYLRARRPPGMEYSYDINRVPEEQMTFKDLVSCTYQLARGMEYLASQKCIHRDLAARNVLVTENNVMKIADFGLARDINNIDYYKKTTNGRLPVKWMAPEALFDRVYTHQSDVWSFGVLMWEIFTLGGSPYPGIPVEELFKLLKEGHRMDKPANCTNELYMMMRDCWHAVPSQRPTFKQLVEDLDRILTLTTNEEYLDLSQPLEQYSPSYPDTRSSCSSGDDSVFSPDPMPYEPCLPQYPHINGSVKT
Summary of the method: as §2

[5] = biological target: T4, FGFR1 (Homo sapiens, UniProt P11362); assay: as above; conditions: read-out: FGFR1 (Kd nM)
T4 construct: made in house; host or cells: E. coli (BL21-derived), T7 phage
T4 sequence (P11362 22-822): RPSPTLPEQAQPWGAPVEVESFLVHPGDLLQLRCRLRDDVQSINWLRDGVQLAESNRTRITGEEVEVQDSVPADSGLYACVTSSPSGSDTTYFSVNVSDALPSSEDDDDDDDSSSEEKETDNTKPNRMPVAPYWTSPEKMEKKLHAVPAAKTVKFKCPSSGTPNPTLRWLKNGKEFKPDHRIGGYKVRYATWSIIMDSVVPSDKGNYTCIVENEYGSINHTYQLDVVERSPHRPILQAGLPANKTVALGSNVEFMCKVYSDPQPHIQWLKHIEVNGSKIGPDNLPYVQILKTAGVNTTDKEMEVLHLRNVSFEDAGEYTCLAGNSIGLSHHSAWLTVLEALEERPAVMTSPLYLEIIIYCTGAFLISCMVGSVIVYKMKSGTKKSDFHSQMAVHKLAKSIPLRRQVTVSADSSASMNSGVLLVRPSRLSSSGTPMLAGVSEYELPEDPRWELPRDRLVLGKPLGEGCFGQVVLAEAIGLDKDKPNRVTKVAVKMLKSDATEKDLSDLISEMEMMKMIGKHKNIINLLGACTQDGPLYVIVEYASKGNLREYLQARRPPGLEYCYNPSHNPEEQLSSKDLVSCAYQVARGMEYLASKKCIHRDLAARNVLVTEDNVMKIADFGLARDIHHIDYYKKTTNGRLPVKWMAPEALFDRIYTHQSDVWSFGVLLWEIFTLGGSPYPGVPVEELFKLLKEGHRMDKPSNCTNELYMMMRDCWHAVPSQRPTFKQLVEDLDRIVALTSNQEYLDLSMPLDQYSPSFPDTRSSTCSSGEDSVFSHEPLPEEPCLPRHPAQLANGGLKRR
Summary of the method: as §2

[6] = biological target: T5, FGFR3 (Homo sapiens, UniProt P22607); assay: as above; conditions: read-out: FGFR3 (Kd nM)
T5 construct: made in house; host or cells: E. coli (BL21-derived), T7 phage
T5 sequence (P22607 23-806): as the sequence (P22607 23-806 V555M) above, with M533V counted along it
Summary of the method: as §2

[7] = tested on: KG-1 cell line (FGFR 1-fusion); assay: Cancer cell line cell viability assay (Cell Titer-Glo), 72 hr; format: cell-based; conditions: Homo sapiens, KG-1, KG-1 cell line (FGFR1-fusion)
Summary of the method: as §1

[8] = tested on: KATO-III cell line (FGFR2 amplification); assay: as above; format: cell-based; conditions: Homo sapiens, KATO III
Summary of the method: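 Cells seeded at 5,000-20,000/well, incubated overnight, then treated with a 9-dose, 4-fold dilution series from 3 μM in triplicate at 37° C, 5% CO2. Viability read by Cell Titer-Glo 2.0 luminescence as percent of DMSO control; IC50 from 4-parameter variable-slope sigmoidal fit.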

[9] = tested on: RT112/84 cell line (FGFR3-fusion); assay: as above; format: cell-based; conditions: Homo sapiens, RT112/84, RT112/84 cell line (FGFR3-fusion)
Summary of the method: as §1

Compound | IC50 [1] [nM] | Kd [2] [nM] | Kd [3] [nM] | Kd [4] [nM] | Kd [5] [nM] | Kd [6] [nM] | IC50 [7] [nM] | IC50 [8] [nM] | IC50 [9] [nM]
COc1cc2[nH]nc(-c3cnc(N4CC(C)(NCCO)C4)c(C#N)c3)c2cc1O[C@H](C)c1c(Cl)cncc1Cl [Example 47, 5-[5-[(1R)-1-(3,5-dichloro-4-pyridyl)ethoxy]-6-methoxy-1H-indazol-3-yl]-2-[3-(2-hydroxyethylamino)-3-methyl-azetidin-1-yl]pyridine-3-carbonitrile] | 0.1 to 50 | 1 to 50 | 1 to 50 | 1 to 50 | 1 to 50 | 1 to 50 | 200 to 1000 | 50 to 200 | 50 to 200
CC(C)NC1(C)CN(c2ncc(-c3n[nH]c4ccc(O[C@H](C)c5c(Cl)cncc5Cl)cc34)cc2C#N)C1 [Example 48, (R)-5-(5-(1-(3,5-dichloropyridin-4-yl)ethoxy)-1H-indazol-3-yl)-2-(3-(isopropylamino)-3-methylazetidin-1-yl)nicotinonitrile] | 0.1 to 50 | 1 to 50 | 1 to 50 | 1 to 50 | 1 to 50 | 1 to 50 | 200 to 1000 | 200 to 1000 | 50 to 200
COc1cc2[nH]nc(-c3cnc(N4CC(C)(CN(C)C)C4)c(C#N)c3)c2cc1O[C@H](C)c1c(Cl)cncc1Cl [Example 49, (R)-5-(5-(1-(3,5-dichloropyridin-4-yl)ethoxy)-6-methoxy-1H-indazol-3-yl)-2-(3-((dimethylamino)methyl)-3-methylazetidin-1-yl)nicotinonitrile] | 0.1 to 50 | 1 to 50 | 1 to 50 | 1 to 50 | 1 to 50 | 1 to 50 | 0.1 to 50 | 0.1 to 50 | 0.1 to 50
COc1cc2[nH]nc(-c3cnc(N4CC(C)(CNC(C)C)C4)c(C#N)c3)c2cc1O[C@H](C)c1c(Cl)cncc1Cl [Example 50, (R)-5-(5-(1-(3,5-dichloropyridin-4-yl)ethoxy)-6-methoxy-1H-indazol-3-yl)-2-(3-((isopropylamino)methyl)-3-methylazetidin-1-yl)nicotinonitrile] | 0.1 to 50 | 1 to 50 | 1 to 50 | 1 to 50 | 1 to 50 | 1 to 50 | 0.1 to 50 | 0.1 to 50 | 0.1 to 50
COc1cc2[nH]nc(-c3cnc(N4CC(C)(N(C)C)C4)nc3)c2cc1O[C@H](C)c1c(Cl)cncc1Cl [Example 51, (R)-1-(5-(5-(1-(3,5-dichloropyridin-4-yl)ethoxy)-6-methoxy-1H-indazol-3-yl)pyrimidin-2-yl)-N,N,3-trimethylazetidin-3-amine] | 0.1 to 50 | 1 to 50 | 1 to 50 | 1 to 50 | 1 to 50 | 1 to 50 | 0.1 to 50 | 0.1 to 50 | 0.1 to 50
C[C@@H](Oc1ccc2[nH]nc(-c3cnc(N4CC(C)(NCCO)C4)c(C#N)c3)c2c1)c1c(Cl)cncc1Cl [Example 52, 5-[5-[(1R)-1-(3,5-dichloro-4-pyridyl)ethoxy]-1H-indazol-3-yl]-2-[3-(2-hydroxyethylamino)-3-methyl-azetidin-1-yl]pyridine-3-carbonitrile] | 0.1 to 50 | 1 to 50 | 1 to 50 | 1 to 50 | 1 to 50 | 1 to 50 | 200 to 1000 | 50 to 200 | 50 to 200
C[C@@H](Oc1ccc2[nH]nc(-c3cnc(N4CC(C)(NCC(C)(C)O)C4)c(C#N)c3)c2c1)c1c(Cl)cncc1Cl [Example 54, (R)-5-(5-(1-(3,5-dichloropyridin-4-yl)ethoxy)-1H-indazol-3-yl)-2-(3-((2-hydroxy-2-methylpropyl)amino)-3-methylazetidin-1-yl)nicotinonitrile] | 0.1 to 50 | 1 to 50 | 1 to 50 | 1 to 50 | 1 to 50 | 1 to 50 | 200 to 1000 | 200 to 1000 | 50 to 200
C[C@@H](O)CNC1(C)CN(c2ncc(-c3n[nH]c4ccc(O[C@H](C)c5c(Cl)cncc5Cl)cc34)cc2C#N)C1 [Example 56, 5-(5-((R)-1-(3,5-dichloropyridin-4-yl)ethoxy)-1H-indazol-3-yl)-2-(3-(((R)-2-hydroxypropyl)amino)-3-methylazetidin-1-yl)nicotinonitrile] | 0.1 to 50 | 1 to 50 | 1 to 50 | 1 to 50 | 1 to 50 | 1 to 50 | 200 to 1000 | 50 to 200 | 0.1 to 50
C[C@H](O)CNC1(C)CN(c2ncc(-c3n[nH]c4ccc(O[C@H](C)c5c(Cl)cncc5Cl)cc34)cc2C#N)C1 [Example 57, 5-(5-((R)-1-(3,5-dichloropyridin-4-yl)ethoxy)-1H-indazol-3-yl)-2-(3-(((S)-2-hydroxypropyl)amino)-3-methylazetidin-1-yl)nicotinonitrile] | 0.1 to 50 | 1 to 50 | 1 to 50 | 1 to 50 | 1 to 50 | 1 to 50 | 200 to 1000 | 50 to 200 | 0.1 to 50
COc1cc2[nH]nc(-c3cnc(N4CC(C)(C)C4)nc3)c2cc1O[C@H](C)c1c(Cl)cncc1Cl [Example 61, 5-[(1R)-1-(3,5-dichloro-4-pyridyl)ethoxy]-3-[2-(3,3-dimethylazetidin-1-yl)pyrimidin-5-yl]-6-methoxy-1H-indazole] | 0.1 to 50 | 1 to 50 | 1 to 50 | 1 to 50 | 1 to 50 | 1 to 50 | 50 to 200 | 50 to 200 | 0.1 to 50

Other lines, results leading:

IC50 [1] [nM] | Kd [2] [nM] | Kd [3] [nM] | Kd [4] [nM] | Kd [5] [nM] | Kd [6] [nM] | IC50 [7] [nM] | IC50 [8] [nM] | IC50 [9] [nM] | Compound
0.1 to 50 | 1 to 50 | 1 to 50 | 1 to 50 | 1 to 50 | 1 to 50 | 50 to 200 | 50 to 200 | 0.1 to 50 | COCCNC1(C)CN(c2ncc(-c3n[nH]c4cc(OC)c(O[C@H](C)c5c(Cl)cncc5Cl)cc34)cc2C#N)C1 [Example 37, 5-[5-[(1R)-1-(3,5-dichloro-4-pyridyl)ethoxy]-6-methoxy-1H-indazol-3-yl]-2-[3-(2-methoxyethylamino)-3-methyl-azetidin-1-yl]pyridine-3-carbonitrile]
0.1 to 50 | 1 to 50 | 1 to 50 | 1 to 50 | 1 to 50 | 1 to 50 | 50 to 200 | 50 to 200 | 0.1 to 50 | COc1cc2[nH]nc(-c3cnc(N4CC(C)(NCCC(F)F)C4)c(C#N)c3)c2cc1O[C@H](C)c1c(Cl)cncc1Cl [Example 41, 5-[5-[(1R)-1-(3,5-dichloro-4-pyridyl)ethoxy]-6-methoxy-1H-indazol-3-yl]-2-[3-(3,3-difluoropropylamino)-3-methyl-azetidin-1-yl]pyridine-3-carbonitrile]
0.1 to 50 | 1 to 50 | 1 to 50 | 1 to 50 | 1 to 50 | 1 to 50 | 50 to 200 | 50 to 200 | 0.1 to 50 | COc1cc2[nH]nc(-c3cnc(N4CC(C)(NCC(F)F)C4)c(C#N)c3)c2cc1O[C@H](C)c1c(Cl)cncc1Cl [Example 42, 5-[5-[(1R)-1-(3,5-dichloro-4-pyridyl)ethoxy]-6-methoxy-1H-indazol-3-yl]-2-[3-(2,2-difluoroethylamino)-3-methyl-azetidin-1-yl]pyridine-3-carbonitrile]
0.1 to 50 | 1 to 50 | 1 to 50 | 1 to 50 | 1 to 50 | 1 to 50 | 50 to 200 | 50 to 200 | 0.1 to 50 | C[C@@H](Oc1ccc2[nH]nc(-c3cnc(N4CC(C)(N5CCOCC5)C4)nc3)c2c1)c1c(Cl)cncc1Cl [Example 43, (R)-4-(1-(5-(5-(1-(3,5-dichloropyridin-4-yl)ethoxy)-1H-indazol-3-yl)pyrimidin-2-yl)-3-methylazetidin-3-yl)morpholine]
0.1 to 50 | 1 to 50 | 1 to 50 | 1 to 50 | 1 to 50 | 1 to 50 | 50 to 200 | 50 to 200 | 0.1 to 50 | C[C@@H](Oc1ccc2[nH]nc(-c3cnc(N4CC(C)(N(C)C)C4)nc3)c2c1)c1c(Cl)cncc1Cl [Example 44, (R)-1-(5-(5-(1-(3,5-dichloropyridin-4-yl)ethoxy)-1H-indazol-3-yl)pyrimidin-2-yl)-N,N,3-trimethylazetidin-3-amine]
